Source: US20090124502A1, “USE OF SULFURYL FLUORIDE AS A SPROUT […]” (Dow AgroSciences LLC, priority 2007, published 2009)

Legend:
Type in all cases: in vivo, Solanum tuberosum
Russet potatoes = experiment: Sulfuryl fluoride fumigation of Russet potatoes, physical and sprouting observations (Example 1); design: key to Tuber Firmness: 1 = firm; 2 = slightly spongy; 3 = very spongy, probably rotten
Procedure: (§1) Russet and red potatoes were purchased from an organic retail store and used for this study. These potatoes were exposed to 4 treatments (0 gram-hour/cubic meter [g-h/m^3], 500 g-h/m^3, 1000 g-h/m^3 and 1500 g-h/m^3) in a Styrofoam™ fumigation chamber. The exposure time was 12 hrs at ambient temperature of approximately 25° C. and relative humidity of 50 percent.

organic Russet potatoes = experiment: Sulfuryl fluoride fumigation of stored organic Russet potatoes, physical and sprouting observations (Example 3); design: Avg Length of sprouts: unit not given here
Procedure: A third study was conducted using stored organic Russet potatoes. These potatoes were exposed to […] (0 g-h/m3, 50 g-h/m^3, 100 g-h/m^3 150 g-h/m^3 and 200 g-h/m^3) in a Styrofoam™ fumigation chamber. The exposure time was 12 hrs at ambient temperature of approximately 25° C. and relative humidity of 50 percent. The treatments were replicated 3 times. Each replicate had approximately 5 lbs of potatoes.

Russet Burbank potatoes = experiment: Sulfuryl fluoride fumigation of stored Russet Burbank potatoes, physical and sprouting observations (Example 2)
Procedure: A second study was conducted using stored Russet Burbank potatoes. These potatoes were exposed to 3 treatments (O g-h/m3, 300 g-h/m^3, and 500 g-h/m^3) in a Styrofoam™ fumigation chamber. The exposure time was 12 hrs at ambient temperature of approximately 25° C. and relative humidity of 50 percent. The treatments were replicated 3 times. Each replicate had approximately 10 lbs of potatoes.

Red potatoes = experiment: Sulfuryl fluoride fumigation of Red potatoes, physical and sprouting observations (Example 1); design: key to Tuber Firmness: 1 = firm; 2 = slightly spongy; 3 = very spongy, probably rotten
Procedure: as §1

[1] = 500 g-h/m^3, 12 hrs exposure, 1 week after exposure
[2] = 500 g-h/m^3, 12 hrs exposure, 2 weeks after exposure
[3] = 500 g-h/m^3, 12 hrs exposure, 3 weeks after exposure
[4] = 1000 g-h/m^3, 12 hrs exposure, 1 week after exposure
[5] = 1000 g-h/m^3, 12 hrs exposure, 2 weeks after exposure
[6] = 1500 g-h/m^3, 12 hrs exposure, 1 week after exposure
[7] = 1500 g-h/m^3, 12 hrs exposure, 2 weeks after exposure
[8] = 50 g-h/m^3, 7 days after exposure
[9] = 50 g-h/m^3, 21 days after exposure
[10] = 50 g-h/m^3, 31 days after exposure
[11] = 100 g-h/m^3, 7 days after exposure
[12] = 100 g-h/m^3, 21 days after exposure
[13] = 100 g-h/m^3, 31 days after exposure
[14] = 150 g-h/m^3, 7 days after exposure
[15] = 150 g-h/m^3, 21 days after exposure
[16] = 150 g-h/m^3, 31 days after exposure
[17] = 200 g-h/m^3, 7 days after exposure
[18] = 200 g-h/m^3, 21 days after exposure
[19] = 200 g-h/m^3, 31 days after exposure
[20] = 300 g-h/m^3, 6 days after exposure, mean of 3 plots
[21] = 300 g-h/m^3, 6 days after exposure, single plots (replicates)
[22] = 300 g-h/m^3, 9 days after exposure, mean
[23] = 500 g-h/m^3, 6 days after exposure, mean of 3 plots
[24] = 500 g-h/m^3, 6 days after exposure, single plots (replicates)
[25] = 500 g-h/m^3, 9 days after exposure, mean
[26] = 500 g-h/m^3, 12 hrs exposure, 10 weeks after exposure

SMILES: O=S(=O)(F)F [sulfuryl fluoride]
- Average length of sprout (Russet potatoes; [1]): <1 mm
- Avg. No. of Sprouts (Russet potatoes; [1]): 1.4
- Tuber Firmness (Russet potatoes; [1]): 1
- Average length of sprout (Russet potatoes; [2]): <1 mm
- Avg. No. of Sprouts (Russet potatoes; [2]): 1.4
- Tuber Firmness (Russet potatoes; [2]): 1
- Average length of sprout (Russet potatoes; [3]): <3 mm
- Avg. No. of Sprouts (Russet potatoes; [3]): 1.4
- Tuber Firmness (Russet potatoes; [3]): 2
- Average length of sprout (Russet potatoes; [4]): <1 mm
- Avg. No. of Sprouts (Russet potatoes; [4]): 0.3
- Tuber Firmness (Russet potatoes; [4]): 1
- Average length of sprout (Russet potatoes; [5]): <1 mm
- Avg. No. of Sprouts (Russet potatoes; [5]): 0.3
- Tuber Firmness (Russet potatoes; [5]): 1
- Average length of sprout (Russet potatoes; [6]): 0 mm
- Avg. No. of Sprouts (Russet potatoes; [6]): 0
- Tuber Firmness (Russet potatoes; [6]): 3
- Average length of sprout (Russet potatoes; [7]): 0 mm
- Avg. No. of Sprouts (Russet potatoes; [7]): 0
- Tuber Firmness (Russet potatoes; [7]): 3
- sprout growth (organic Russet potatoes; 50 g-h/m^3, 21 DAT, compared to 150 and 200 g-h/m^3 treatments): significant sprout growth
- Avg Length of sprouts (organic Russet potatoes; [8]): 1.1
- Avg. Number of sprouts (organic Russet potatoes; [8]): 3.00
- Number of Sprouts (organic Russet potatoes; [8]): 60.0
- Tuber Firmness (organic Russet potatoes; [8]): 0.0 MM
- Avg Length of sprouts (organic Russet potatoes; [9]): 9.1
- Avg. Number of sprouts (organic Russet potatoes; [9]): 6.3
- Number of Sprouts (organic Russet potatoes; [9]): 126.0
- Tuber Firmness (organic Russet potatoes; [9]): 1.0 MM
- Avg Length of sprouts (organic Russet potatoes; [10]): 21.1
- Avg. Number of sprouts (organic Russet potatoes; [10]): 6.3
- Number of Sprouts (organic Russet potatoes; [10]): 126.0
- Tuber Firmness (organic Russet potatoes; [10]): 2.0 MM
- sprout inhibition (organic Russet potatoes; 50 to 200 g-h/m^3, Table 13 (21 days after exposure)): dose dependent
- sprout growth (organic Russet potatoes; 100 g-h/m^3, 21 DAT, compared to 150 and 200 g-h/m^3 treatments): significant sprout growth
- Avg Length of sprouts (organic Russet potatoes; [11]): 1.0
- Avg. Number of sprouts (organic Russet potatoes; [11]): 1.9
- Number of Sprouts (organic Russet potatoes; [11]): 52.0
- Tuber Firmness (organic Russet potatoes; [11]): 0.0 MM
- Avg Length of sprouts (organic Russet potatoes; [12]): 6.5
- Avg. Number of sprouts (organic Russet potatoes; [12]): 2.4
- Number of Sprouts (organic Russet potatoes; [12]): 88.0
- Tuber Firmness (organic Russet potatoes; [12]): 1.0 MM
- Avg Length of sprouts (organic Russet potatoes; [13]): 16.5
- Avg. Number of sprouts (organic Russet potatoes; [13]): 2.4
- Number of Sprouts (organic Russet potatoes; [13]): 88.0
- Tuber Firmness (organic Russet potatoes; [13]): 1.0 MM
- sprout growth (organic Russet potatoes; 150 g-h/m^3, 7 DAT): slight sprout growth
- sprout growth (organic Russet potatoes; 150 g-h/m^3, 21 DAT observations): did not grow further
- Avg Length of sprouts (organic Russet potatoes; [14]): 0.2
- Avg. Number of sprouts (organic Russet potatoes; [14]): 0.3
- Number of Sprouts (organic Russet potatoes; [14]): 17.0
- Tuber Firmness (organic Russet potatoes; [14]): 0.0 MM
- Avg Length of sprouts (organic Russet potatoes; [15]): 0.2
- Avg. Number of sprouts (organic Russet potatoes; [15]): 0.3
- Number of Sprouts (organic Russet potatoes; [15]): 17.0
- Tuber Firmness (organic Russet potatoes; [15]): 0.0 MM
- Avg Length of sprouts (organic Russet potatoes; [16]): 1.2
- Avg. Number of sprouts (organic Russet potatoes; [16]): 0.3
- Number of Sprouts (organic Russet potatoes; [16]): 17.0
- Tuber Firmness (organic Russet potatoes; [16]): 0.0 MM
- Avg Length of sprouts (organic Russet potatoes; [17]): 0
- Avg. Number of sprouts (organic Russet potatoes; [17]): 0
- Number of Sprouts (organic Russet potatoes; [17]): 0
- Tuber Firmness (organic Russet potatoes; [17]): 0.0 MM
- Avg Length of sprouts (organic Russet potatoes; [18]): 0
- Avg. Number of sprouts (organic Russet potatoes; [18]): 0
- Number of Sprouts (organic Russet potatoes; [18]): 0
- Tuber Firmness (organic Russet potatoes; [18]): 0.0 MM
- Avg Length of sprouts (organic Russet potatoes; [19]): 0
- Avg. Number of sprouts (organic Russet potatoes; [19]): 0
- Number of Sprouts (organic Russet potatoes; [19]): 0
- Tuber Firmness (organic Russet potatoes; [19]): 0.0 MM
- phyto-toxic effects (organic Russet potatoes; 200 g-h/m^3, after 31 days): without any phyto-toxic effects
- sprout inhibition (organic Russet potatoes; 200 g-h/m^3, after 31 days): best sprout inhibition
- peel testing, black spot (organic Russet potatoes; all treatments of the study (50 to 200 g-h/m^3)): none of the treatments used in this study produced the black spot
- Avg Length of sprouts (Russet Burbank potatoes; [20]): 0.0 b MM
- Tuber Firmness (Russet Burbank potatoes; [20]): 0.0 a 0-3
- Avg Length of sprouts (Russet Burbank potatoes; [21]): 0.0 MM
- Avg. Number of sprouts (Russet Burbank potatoes; [21]): 0.00
- Tuber Firmness (Russet Burbank potatoes; [21]): 0.0 0-3
- Number of Sprouts (Russet Burbank potatoes; 300 g-h/m^3, 6 days after exposure, single plots (replicates), 10 pounds): 0.0
- Avg Length of sprouts (Russet Burbank potatoes; [22]): 0.0 b
- Avg. Number of sprouts (Russet Burbank potatoes; [22]): 0.00 b
- Number of Sprouts (Russet Burbank potatoes; [22]): 0.0 b
- sprout growth (Russet Burbank potatoes; 300 g-h/m^3 and 500 g-h/m^3 treatments, Table 10 and 11 (6 and 9 days after exposure)): stopped sprouts from growing
- Avg Length of sprouts (Russet Burbank potatoes; [23]): 0.0 b MM
- Tuber Firmness (Russet Burbank potatoes; [23]): 0.0 a 0-3
- Avg Length of sprouts (Russet Burbank potatoes; [24]): 0.0 MM
- Avg. Number of sprouts (Russet Burbank potatoes; [24]): 0.00
- Tuber Firmness (Russet Burbank potatoes; [24]): 0.0 0-3
- Number of Sprouts (Russet Burbank potatoes; 500 g-h/m^3, 6 days after exposure, single plots (replicates), 10 pounds): 0.0
- Avg Length of sprouts (Russet Burbank potatoes; [25]): 0.0 b
- Avg. Number of sprouts (Russet Burbank potatoes; [25]): 0.00 b
- Number of Sprouts (Russet Burbank potatoes; [25]): 0.0 b
- Average length of sprout (Red potatoes; [1]): 0 mm
- Avg. No. of Sprouts (Red potatoes; [1]): 0
- Tuber Firmness (Red potatoes; [1]): 1
- Average length of sprout (Red potatoes; [2]): 0 mm
- Avg. No. of Sprouts (Red potatoes; [2]): 0
- Tuber Firmness (Red potatoes; [2]): 1
- Avg. No. of Sprouts (Red potatoes; [3]): 1.5
- Tuber Firmness (Red potatoes; [3]): 1
- Avg. No. of Sprouts (Red potatoes; [26]): 1.5
- Tuber Firmness (Red potatoes; [26]): 1
- Average length of sprout (Red potatoes; [4]): 0 mm
- Avg. No. of Sprouts (Red potatoes; [4]): 0
- Tuber Firmness (Red potatoes; [4]): 2
- Average length of sprout (Red potatoes; [5]): 0 mm
- Avg. No. of Sprouts (Red potatoes; [5]): 0
- Tuber Firmness (Red potatoes; [5]): 2
- Average length of sprout (Red potatoes; [6]): 0 mm
- Avg. No. of Sprouts (Red potatoes; [6]): 0
- Tuber Firmness (Red potatoes; [6]): 3
- Average length of sprout (Red potatoes; [7]): 0 mm
- Avg. No. of Sprouts (Red potatoes; [7]): 0
- Tuber Firmness (Red potatoes; [7]): 3
